# Assay results published in US20240299412A1, “DRUG FORMULATIONS OF 4-(3,3-DIFLUORO-2,2-DIMETHYL-PROPANOYL) -3,5-DIHYDRO-2H-PYRIDO[3,4-f][1,4]OXAZEPINE-9-CARBONITRILE” (Genzyme Corporation, priority 2023, published 2024).
# How the values were obtained:
# Type in all cases: physicochemical
# [1] = 24-Hrs solubility in pH buffers; details: for solubility at 24 h: aqueous buffer, thermodynamic from solid, Turbid; for Final Form: residual solid; for solubility at 24 h / Final Form: 24 hrs
# [2] = Solution stability in pH buffers; details: 37° C.; for Purity vs. Initial (%): ~0.5 mg/mL, Clear
# Procedure: Solution stability study was performed in pH 2.0/4.0/6.0/7.0 (24 hrs) and pH 8.0 (24 hrs and 96 hrs) buffers. Solids were dissolved with pH buffers with target conc. of ˜0.5 mg/mL to form clear solutions and stored at 37° C. for 24 hrs or 96 hrs.
# [3] = Physical and chemical stability of Form A (solid storage)
# Procedure: To evaluate the physical and chemical stability, Compound (1) Form A was stored in 3 conditions (40° C./75% RH; 25° C./60% RH; and 60° C.) for one and four weeks.
# [4] = Kinetic solubility in bio-relevant media and H2O; details: for Final Form: residual solid; for Final Form / solubility at 1 h / solubility at 4 h / solubility at 24 h: 37° C.; for solubility at 1 h / solubility at 4 h / solubility at 24 h: thermodynamic from solid, Turbid
# Procedure: Solids were suspended in FaSSIF, FeSSIF, SGF and H2O with target conc. of ˜10 mg/mL. The suspensions were agitated on a rolling incubator at 25 rpm (in the incubator set at 37° C.) for 1, 4 and 24 hrs. At each time point, 1 mL of the suspension was pipetted out for centrifugation at 15000 rpm (3 min) and filtration through 0.45 μm membrane to obtain supernatant for HPLC solubility and pH tests, the residual solids were analyzed by XRPD.
# [5] = Dynamic vapor sorption (DVS)
# Procedure: DVS. DVS was measured via a SMS (Surface Measurement Systems) DVS Intrinsic. The relative humidity at 25° C. were calibrated against deliquescence point of LiCl, Mg(NO3)2 and KCl.
# (onset temperature). Considering the low TGA weight loss and single sharp DSC endotherm, Form A was postulated to be an anhydrate. […] However Form A has been prepared with much lower volatile content (0.1% or lower).
# [6] = pH 7.0 (50 mM Phosphate), 24 hrs
# [7] = pH 8.0 (50 mM Phosphate), 24 hrs
# [8] = pH 8.0 (50 mM Phosphate), 96 hrs
# [9] = 40° C./75% RH, 25° C./60% RH, 60° C., one and four weeks
structure (smiles),measurement,setting,value
"CC(C)(C(=O)N1CCOc2c(C#N)cncc2C1)C(F)F [Form A, 4-(3,3-difluoro-2,2-dimethyl-propanoyl)-3,5-dihydro-2H-pyrido[3,4-f][1,4]oxazepine-9-carbonitrile]",solubility at 24 h,"[1]; 50 mM HCl-KCl buffer, pH 2.0 (50 mM HCl—KCl), final pH 2.3",1800 µg/mL
same,solubility at 24 h,"[1]; 50 mM citrate buffer, pH 4.0 (50 mM Citrate), final pH 4.1",840 µg/mL
same,solubility at 24 h,"[1]; 50 mM citrate buffer, pH 6.0 (50 mM Citrate), final pH 5.9",750 µg/mL
same,solubility at 24 h,"[1]; 50 mM phosphate buffer, pH 7.0 (50 mM Phosphate), final pH 6.9",900 µg/mL
same,solubility at 24 h,"[1]; 50 mM phosphate buffer, pH 8.0 (50 mM Phosphate), final pH 7.8",810 µg/mL
same,form change after equilibrium solubility evaluation,[1]; pH buffers,no form change
same,Final Form,[1]; pH 2.0 (50 mM HCl—KCl),Form A
same,Final Form,[1]; pH 4.0 (50 mM Citrate),Form A
same,Final Form,[1]; pH 6.0 (50 mM Citrate),Form A
same,Final Form,[1]; pH 7.0 (50 mM Phosphate),Form A
same,Final Form,[1]; pH 8.0 (50 mM Phosphate),Form A
same,API (RRT 1.00) % Area,"[2]; pH 2.0 (50 mM HCl—KCl), 24 hrs",84.93 % Area
same,Imp. 1 (RRT 0.66) % Area,"[2]; pH 2.0 (50 mM HCl—KCl), 24 hrs",0.15 % Area
same,Imp. 1 (RRT 0.70) % Area,"[2]; pH 2.0 (50 mM HCl—KCl), 24 hrs",0.67 % Area
same,Imp. 1 (RRT 0.76) % Area,"[2]; pH 2.0 (50 mM HCl—KCl), 24 hrs",14.25 % Area
same,Imp. 1 (RRT 1.05) % Area,"[2]; pH 2.0 (50 mM HCl—KCl), 24 hrs",— (—: <0.05 area %)
same,Purity vs. Initial (%),"[2]; pH 2.0 (50 mM HCl—KCl), 24 hrs",85.1%
same,degradation in solution,"[2]; pH 2.0 and pH 4.0 buffers, 24 hrs",Degradation was observed
same,API (RRT 1.00) % Area,"[2]; pH 4.0 (50 mM Citrate), 24 hrs",98.42 % Area
same,Imp. 1 (RRT 0.66) % Area,"[2]; pH 4.0 (50 mM Citrate), 24 hrs",0.15 % Area
same,Imp. 1 (RRT 0.70) % Area,"[2]; pH 4.0 (50 mM Citrate), 24 hrs",— (—: <0.05 area %)
same,Imp. 1 (RRT 0.76) % Area,"[2]; pH 4.0 (50 mM Citrate), 24 hrs",0.38 % Area
same,Imp. 1 (RRT 1.05) % Area,"[2]; pH 4.0 (50 mM Citrate), 24 hrs",0.06 % Area
same,Purity vs. Initial (%),"[2]; pH 4.0 (50 mM Citrate), 24 hrs",98.5%
same,API (RRT 1.00) % Area,"[2]; pH 6.0 (50 mM Citrate), 24 hrs",99.75 % Area
same,Imp. 1 (RRT 0.66) % Area,"[2]; pH 6.0 (50 mM Citrate), 24 hrs",0.13 % Area
same,Imp. 1 (RRT 0.70) % Area,"[2]; pH 6.0 (50 mM Citrate), 24 hrs",— (—: <0.05 area %)
same,Imp. 1 (RRT 0.76) % Area,"[2]; pH 6.0 (50 mM Citrate), 24 hrs",0.06 % Area
same,Imp. 1 (RRT 1.05) % Area,"[2]; pH 6.0 (50 mM Citrate), 24 hrs",0.06 % Area
same,Purity vs. Initial (%),"[2]; pH 6.0 (50 mM Citrate), 24 hrs",99.8%
same,API (RRT 1.00) % Area,[2]; [6],99.78 % Area
same,Imp. 1 (RRT 0.66) % Area,[2]; [6],0.15 % Area
same,Imp. 1 (RRT 0.70) % Area,[2]; [6],— (—: <0.05 area %)
same,Imp. 1 (RRT 0.76) % Area,[2]; [6],— (—: <0.05 area %)
same,Imp. 1 (RRT 1.05) % Area,[2]; [6],0.07 % Area
same,Purity vs. Initial (%),[2]; [6],99.9%
same,API (RRT 1.00) % Area,[2]; [7],99.81 % Area
same,Imp. 1 (RRT 0.66) % Area,[2]; [7],0.13 % Area
same,Imp. 1 (RRT 0.70) % Area,[2]; [7],— (—: <0.05 area %)
same,Imp. 1 (RRT 0.76) % Area,[2]; [7],— (—: <0.05 area %)
same,Imp. 1 (RRT 1.05) % Area,[2]; [7],0.06 % Area
same,Purity vs. Initial (%),[2]; [7],100.0%
same,API (RRT 1.00) % Area,[2]; [8],99.83 % Area
same,Imp. 1 (RRT 0.66) % Area,[2]; [8],0.13 % Area
same,Imp. 1 (RRT 0.70) % Area,[2]; [8],— (—: <0.05 area %)
same,Imp. 1 (RRT 0.76) % Area,[2]; [8],— (—: <0.05 area %)
same,Imp. 1 (RRT 1.05) % Area,[2]; [8],0.04 % Area
same,Purity vs. Initial (%),[2]; [8],100.0%
same,API (RRT 1.00) % Area,"[3]; 1 week, 25° C./60% RH",99.92 % Area
same,Description,"[3]; 1 week, 25° C./60% RH",White powder
same,Final Form,"[3]; 1 week, 25° C./60% RH",Form A
same,Imp.1 (RRT 0.68) % Area,"[3]; 1 week, 25° C./60% RH",0.08 % Area
same,Purity VS. initial (%),"[3]; 1 week, 25° C./60% RH",100.0%
same,API (RRT 1.00) % Area,"[3]; 1 week, 40° C./75% RH",99.89 % Area
same,Description,"[3]; 1 week, 40° C./75% RH",White powder
same,Final Form,"[3]; 1 week, 40° C./75% RH",Form A
same,Imp.1 (RRT 0.68) % Area,"[3]; 1 week, 40° C./75% RH",0.11 % Area
same,Purity VS. initial (%),"[3]; 1 week, 40° C./75% RH",100.0%
same,API (RRT 1.00) % Area,"[3]; 1 week, 60° C.",99.90 % Area
same,Description,"[3]; 1 week, 60° C.",White powder
same,Final Form,"[3]; 1 week, 60° C.",Form A
same,Imp.1 (RRT 0.68) % Area,"[3]; 1 week, 60° C.",0.10 % Area
same,Purity VS. initial (%),"[3]; 1 week, 60° C.",100.0%
same,API (RRT 1.00) % Area,"[3]; 4 weeks, 25° C./60% RH",99.90 % Area
same,Description,"[3]; 4 weeks, 25° C./60% RH",White powder
same,Final Form,"[3]; 4 weeks, 25° C./60% RH",Form A
same,Imp.1 (RRT 0.68) % Area,"[3]; 4 weeks, 25° C./60% RH",0.10 % Area
same,Purity VS. initial (%),"[3]; 4 weeks, 25° C./60% RH",100.0%
same,API (RRT 1.00) % Area,"[3]; 4 weeks, 40° C./75% RH",99.90 % Area
same,Description,"[3]; 4 weeks, 40° C./75% RH",White powder
same,Final Form,"[3]; 4 weeks, 40° C./75% RH",Form A
same,Imp.1 (RRT 0.68) % Area,"[3]; 4 weeks, 40° C./75% RH",0.10 % Area
same,Purity VS. initial (%),"[3]; 4 weeks, 40° C./75% RH",100.0%
same,API (RRT 1.00) % Area,"[3]; 4 weeks, 60° C.",99.90 % Area
same,Description,"[3]; 4 weeks, 60° C.",White powder
same,Final Form,"[3]; 4 weeks, 60° C.",Form A
same,Imp.1 (RRT 0.68) % Area,"[3]; 4 weeks, 60° C.",0.10 % Area
same,Purity VS. initial (%),"[3]; 4 weeks, 60° C.",100.0%
same,HPLC purity change on storage,[3]; [9],no obvious HPLC purity change
same,form change on storage (XRPD),[3]; [9],no form change
same,API (RRT 1.00) % Area,[3]; Initial,99.89 % Area
same,Imp.1 (RRT 0.68) % Area,[3]; Initial,0.11 % Area
same,form change after kinetic solubility test,[4]; bio-relevant media or H2O,No form change
same,Final Form,"[4]; FaSSIF (pH 6.5), 1 hr",Form A
same,Final Form,"[4]; FaSSIF (pH 6.5), 4 hr",Form A
same,Final Form,"[4]; FaSSIF (pH 6.5), 24 hr",Form A
same,Final Form,"[4]; FeSSIF (pH 5.0), 1 hr",Form A
same,Final Form,"[4]; FeSSIF (pH 5.0), 4 hr",Form A
same,Final Form,"[4]; FeSSIF (pH 5.0), 24 hr",Form A
same,Final Form,"[4]; H2O (pH 6.5), 1 hr",Form A
same,Final Form,"[4]; H2O (pH 6.5), 4 hr",Form A
same,Final Form,"[4]; H2O (pH 6.5), 24 hr",Form A
same,Final Form,"[4]; SGF (pH 1.8), 1 hr",Form A
same,Final Form,"[4]; SGF (pH 1.8), 4 hr",Form A
same,Final Form,"[4]; SGF (pH 1.8), 24 hr",Form A
same,solubility at 1 h,"[4]; simulated gastric fluid, SGF (pH 1.8), 1 hr, final pH 1.8",2300 µg/mL
same,solubility at 4 h,"[4]; simulated gastric fluid, SGF (pH 1.8), 4 hr, final pH 2.3",2400 µg/mL
same,solubility at 24 h,"[4]; simulated gastric fluid, SGF (pH 1.8), 24 hr, final pH 2.2",2500 µg/mL
same,solubility at 1 h,"[4]; FaSSIF (pH 6.5), 1 hr, final pH 6.4",1100 µg/mL
same,solubility at 4 h,"[4]; FaSSIF (pH 6.5), 4 hr, final pH 6.6",1100 µg/mL
same,solubility at 24 h,"[4]; FaSSIF (pH 6.5), 24 hr, final pH 6.6",1200 µg/mL
same,solubility at 1 h,"[4]; FeSSIF (pH 5.0), 1 hr, final pH 5.6",1100 µg/mL
same,solubility at 4 h,"[4]; FeSSIF (pH 5.0), 4 hr, final pH 5.6",1200 µg/mL
same,solubility at 24 h,"[4]; FeSSIF (pH 5.0), 24 hr, final pH 5.6",1200 µg/mL
same,solubility at 1 h,"[4]; water, H2O (pH 6.5), 1 hr, final pH 8.5",1100 µg/mL
same,solubility at 4 h,"[4]; water, H2O (pH 6.5), 4 hr, final pH 8.4",1100 µg/mL
same,solubility at 24 h,"[4]; water, H2O (pH 6.5), 24 hr, final pH 8.7",1100 µg/mL
same,water uptake (DVS),[5]; 25 C.°/80% RH,0.024%
same,form change after DVS test (XRPD),[5]; after DVS test,no form change
